According to patent publication US8008510B2, “Metalloprotein inhibitors” (The Regents of the University of California, priority 2004, dated 2011):

Target: MMP-3 (Homo sapiens, UniProt P08254)
Assay: MMP-3 fluorescence-based inhibition assay

Sequence of MMP-3 (P08254 100-272 limits assumed): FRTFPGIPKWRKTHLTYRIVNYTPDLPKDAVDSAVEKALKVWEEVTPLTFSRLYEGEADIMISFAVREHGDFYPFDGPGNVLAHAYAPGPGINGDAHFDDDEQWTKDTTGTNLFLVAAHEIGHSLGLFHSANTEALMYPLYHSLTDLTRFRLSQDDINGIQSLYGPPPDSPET

Row | IC50 [µM] | inhibition at 50 µM (read-out: inhibition of MMP-3) [%] | Compound
1 | 90 | – | Cc1cc(=O)c(O)c(C(=O)Nc2ccc(-c3ccccc3)cc2)o1 [AM3]
2 | – | 25 | O=C(NCc1ccc(-c2ccccc2)cc1)c1cc(=O)c(O)co1 [CA1]
